The record followed here is patent US10562887B2, “Triazolones and tetrazolones as inhibitors of ROCK” (BRISTOL-MYERS SQUIBB COMPANY, priority 2016, dated 2020).

The structures appear in SMILES notation. A value given as a limit tells only on which side of the number the result lay.

Sequence of ROCK2 (O75116 whole entry, species assumed): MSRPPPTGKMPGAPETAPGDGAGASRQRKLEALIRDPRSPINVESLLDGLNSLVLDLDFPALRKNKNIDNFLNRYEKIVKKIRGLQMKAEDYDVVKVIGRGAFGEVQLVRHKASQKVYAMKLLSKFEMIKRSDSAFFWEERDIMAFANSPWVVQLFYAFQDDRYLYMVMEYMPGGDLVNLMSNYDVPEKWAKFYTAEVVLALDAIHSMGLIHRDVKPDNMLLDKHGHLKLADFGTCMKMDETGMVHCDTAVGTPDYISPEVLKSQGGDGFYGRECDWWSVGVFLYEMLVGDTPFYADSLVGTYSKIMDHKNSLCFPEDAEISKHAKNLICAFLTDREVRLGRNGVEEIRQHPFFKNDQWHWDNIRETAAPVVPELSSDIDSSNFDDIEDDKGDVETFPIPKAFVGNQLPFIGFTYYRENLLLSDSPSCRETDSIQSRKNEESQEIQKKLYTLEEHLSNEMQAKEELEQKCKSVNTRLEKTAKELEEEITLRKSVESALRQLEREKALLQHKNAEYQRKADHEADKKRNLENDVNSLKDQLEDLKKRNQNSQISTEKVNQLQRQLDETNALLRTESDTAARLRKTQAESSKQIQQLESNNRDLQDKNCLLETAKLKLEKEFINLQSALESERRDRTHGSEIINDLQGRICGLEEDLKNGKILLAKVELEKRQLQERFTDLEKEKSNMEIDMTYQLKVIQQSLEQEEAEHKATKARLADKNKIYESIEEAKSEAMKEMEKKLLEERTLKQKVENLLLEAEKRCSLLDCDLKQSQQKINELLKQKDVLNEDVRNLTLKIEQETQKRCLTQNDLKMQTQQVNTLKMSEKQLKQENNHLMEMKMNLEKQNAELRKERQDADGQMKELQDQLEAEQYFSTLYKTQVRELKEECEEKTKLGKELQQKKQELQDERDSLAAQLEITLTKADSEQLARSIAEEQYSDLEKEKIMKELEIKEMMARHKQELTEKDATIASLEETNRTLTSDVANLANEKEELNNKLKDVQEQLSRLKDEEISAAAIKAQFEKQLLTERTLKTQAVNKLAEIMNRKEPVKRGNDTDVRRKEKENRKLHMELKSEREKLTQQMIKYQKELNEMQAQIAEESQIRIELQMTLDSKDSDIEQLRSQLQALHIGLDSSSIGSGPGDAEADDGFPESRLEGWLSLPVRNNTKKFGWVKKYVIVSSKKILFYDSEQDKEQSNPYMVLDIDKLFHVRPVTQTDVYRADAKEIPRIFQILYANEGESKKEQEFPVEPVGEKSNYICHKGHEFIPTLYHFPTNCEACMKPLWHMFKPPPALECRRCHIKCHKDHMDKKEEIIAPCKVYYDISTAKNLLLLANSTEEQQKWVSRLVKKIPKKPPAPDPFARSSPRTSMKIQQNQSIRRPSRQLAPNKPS

For the experiment, the target named is ROCK2 (Homo sapiens (Human), UniProt O75116). Description: ROCK2 assay (peptide phosphorylation, LABCHIP 3000 Reader). The experiment is classed as biochemical. Conditions: 5 μM ATP, 1.5 μM peptide substrate. A digest of the protocol:
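Human ROCK2 reaction in 20 mM HEPES pH 7.5, 20 mM MgCl2, 0.015% Brij-35, 4 mM DTT, with 5 μM ATP and 1.5 μM FITC-labelled peptide, DMSO <2%. Stopped with EDTA; phosphorylated and unphosphorylated peptide separated by microfluidic mobility shift. IC50 from dose-response curve fit.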
Compound `Cc1nn(Cc2cc(F)ccc2F)c(=O)n1-c1ccc(-c2cn[nH]c2)cc1` [Example 71, 4-(4-(1H-pyrazol-4-yl)phenyl)-1-(2,5-difluorobenzyl)-3-methyl-1H-1,2,4-triazol-5(4H)-one] returned a 50% inhibitory concentration (IC50) of 0.25 to 2 µM. `CCc1cc(-n2nc(C)n(Cc3cccc(OC)c3)c2=O)ccc1-c1cn[nH]c1` [Example 105, 1-(3-ethyl-4-(1H-pyrazol-4-yl)phenyl)-4-(3-methoxybenzyl)-3-methyl-1H-1,2,4-triazol-5(4H)-one] registered a concentration for half-maximal inhibition (IC50) of 0.005 to 0.05 µM. With `COc1cc(-n2ncn(Cc3c(F)cccc3F)c2=O)ccc1-c1cn[nH]c1` [Example 39, 4-(2,6-difluorobenzyl)-1-(3-methoxy-4-(1H-pyrazol-4-yl)phenyl)-1H-1,2,4-triazol-5(4H)-one], the IC50 fell in the range of 0.005 to 0.05 µM. In turn, `COc1cccc(C(C)n2cnn(-c3ccc(-c4cn[nH]c4)cc3)c2=O)c1` (single isomer, unassigned) [Example 48, 1-(4-(1H-pyrazol-4-yl)phenyl)-4-(1-(3-methoxyphenyl)ethyl)-1H-1,2,4-triazol-5(4H)-one] displayed an IC50 of less than 0.005 µM.

On to `CCc1cc(-n2ncn(Cc3cccc(F)c3)c2=O)ccc1-c1cn[nH]c1` [Example 55, 1-(3-ethyl-4-(1H-pyrazol-4-yl)phenyl)-4-(3-fluorobenzyl)-1H-1,2,4-triazol-5(4H)-one], for which the concentration for half-maximal inhibition (IC50) was in the range of 0.005 to 0.05 µM.

Regarding `CCc1cc(-n2nc(C)n(Cc3ccc(F)cc3)c2=O)ccc1-c1cn[nH]c1` [Example 114, 1-(3-ethyl-4-(1H-pyrazol-4-yl)phenyl)-4-(4-fluorobenzyl)-3-methyl-1H-1,2,4-triazol-5(4H)-one], the concentration for half-maximal inhibition (IC50) was 0.25 to 2 µM. The same measure for `O=c1n(-c2ccc(-c3cn[nH]c3)cc2)cnn1Cc1cccc(F)c1` [Example 1, 4-(4-(1H-pyrazol-4-yl)phenyl)-1-(3-fluorobenzyl)-1H-1,2,4-triazol-5(4H)-one]: 0.05 to 0.25 µM; for `COc1cc(F)cc(Cn2c(C(C)(C)O)nn(-c3ccc(-c4cn[nH]c4)cc3)c2=O)c1` [Example 145, 1-(4-(1H-pyrazol-4-yl)phenyl)-4-(3-fluoro-5-methoxybenzyl)-3-(2-hydroxypropan-2-yl)-1H-1,2,4-triazol-5(4H)-one]: 0.005 to 0.05 µM. In turn, `COc1cc(-n2cnn(Cc3ccccc3)c2=O)ccc1-c1cn[nH]c1` [Example 5, 1-benzyl-4-(3-methoxy-4-(1H-pyrazol-4-yl)phenyl)-1H-1,2,4-triazol-5(4H)-one] had a concentration for half-maximal inhibition (IC50) of 0.05 to 0.25 µM.

As for `COc1cccc(C(C)n2c(C)nn(-c3ccc(-c4cn[nH]c4)cc3)c2=O)c1` (single isomer, unassigned) [Example 119, 1-(4-(1H-pyrazol-4-yl)phenyl)-4-(1-(3-methoxyphenyl)ethyl)-3-methyl-1H-1,2,4-triazol-5(4H)-one], the IC50 fell in the range of 0.005 to 0.05 µM. For `COc1cccc(Cn2c(CN3CCCC3)nn(-c3ccc(-c4cn[nH]c4)cc3)c2=O)c1` [Example 146, 1-(4-(1H-pyrazol-4-yl)phenyl)-4-(3-methoxybenzyl)-3-(pyrrolidin-1-ylmethyl)-1H-1,2,4-triazol-5(4H)-one], the IC50 fell in the range of 0.005 to 0.05 µM. The value for `COc1cc(-n2c(C)nn(CCc3ccccc3)c2=O)ccc1-c1cn[nH]c1` [Example 66, 4-(3-methoxy-4-(1H-pyrazol-4-yl)phenyl)-3-methyl-1-phenethyl-1H-1,2,4-triazol-5(4H)-one] was 0.05 to 0.25 µM; that for `CC(C)(O)c1nn(-c2ccc(-c3cn[nH]c3)cc2)c(=O)n1Cc1cccc(OC(F)F)c1` [Example 139, 1-(4-(1H-pyrazol-4-yl)phenyl)-4-(3-(difluoromethoxy)benzyl)-3-(2-hydroxypropan-2-yl)-1H-1,2,4-triazol-5(4H)-one] was 0.05 to 0.25 µM.

Consider `COc1cc(F)cc(Cn2c(CN3CCC(O)C3)nn(-c3ccc(-c4cn[nH]c4)cc3)c2=O)c1` (stereo not drawn) [Example 155, 1-(4-(1H-pyrazol-4-yl)phenyl)-4-(3-fluoro-5-methoxybenzyl)-3-((3-hydroxypyrrolidin-1-yl)methyl)-1H-1,2,4-triazol-5(4H)-one], for which the half-maximal inhibitory concentration (IC50) was 0.005 to 0.05 µM. As to `N#Cc1cccc(Cn2c(CO)nn(-c3ccc(-c4cn[nH]c4)cc3)c2=O)c1` [Example 132, 3-((1-(4-(1H-pyrazol-4-yl)phenyl)-3-(hydroxymethyl)-5-oxo-1H-1,2,4-triazol-4(5H)-yl)methyl)benzonitrile], the IC50 was 0.05 to 0.25 µM. With `CCc1cc(-n2ncn(Cc3cc(F)cc(F)c3)c2=O)ccc1-c1cn[nH]c1` [Example 44, 4-(3,5-difluorobenzyl)-1-(3-ethyl-4-(1H-pyrazol-4-yl)phenyl)-1H-1,2,4-triazol-5(4H)-one], the half-maximal inhibitory concentration (IC50) lay within 0.005 to 0.05 µM. The same measure for `COc1cccc(Cn2nnn(-c3ccc(-c4cn[nH]c4)cc3)c2=O)c1` [Example 172, 1-(4-(1H-pyrazol-4-yl)phenyl)-4-(3-methoxybenzyl)-1H-tetrazol-5(4H)-one]: 0.005 to 0.05 µM; for `COc1cccc(Cn2cnn(-c3ccc(-c4cn[nH]c4)cc3)c2=O)c1F` [Example 51, 1-(4-(1H-pyrazol-4-yl)phenyl)-4-(2-fluoro-3-methoxybenzyl)-1H-1,2,4-triazol-5(4H)-one]: 0.005 to 0.05 µM; for `CCc1cc(-n2ncn(Cc3cccc(C#N)c3)c2=O)ccc1-c1cn[nH]c1` [Example 41, 3-((1-(3-ethyl-4-(1H-pyrazol-4-yl)phenyl)-5-oxo-1H-1,2,4-triazol-4(5H)-yl)methyl)benzonitrile]: 0.25 to 2 µM. As to `COc1cccc(Cn2nc(C)n(-c3ccc(-c4cn[nH]c4)cc3)c2=O)c1` [Example 69, 4-(4-(1H-pyrazol-4-yl)phenyl)-1-(3-methoxybenzyl)-3-methyl-1H-1,2,4-triazol-5(4H)-one], the IC50 lay in the range of 0.25 to 2 µM. The value for `CCc1cc(-n2nc(C)n(Cc3ccccc3)c2=O)ccc1-c1cn[nH]c1` [Example 117, 4-benzyl-1-(3-ethyl-4-(1H-pyrazol-4-yl)phenyl)-3-methyl-1H-1,2,4-triazol-5(4H)-one] was 0.005 to 0.05 µM.

In turn, `COc1cccc(Cn2cnn(-c3ccc(-c4ccnc(N)n4)cc3)c2=O)c1` [Example 170, 1-(4-(2-aminopyrimidin-4-yl)phenyl)-4-(3-methoxybenzyl)-1H-1,2,4-triazol-5(4H)-one] displayed an IC50 of 0.005 to 0.05 µM. For `O=c1n(-c2ccc(-c3cn[nH]c3)cc2)nc(CO)n1Cc1ccccc1` [Example 126, 1-(4-(1H-pyrazol-4-yl)phenyl)-4-benzyl-3-(hydroxymethyl)-1H-1,2,4-triazol-5(4H)-one], the IC50 is 0.005 to 0.05 µM. The same measure for `O=c1n(Cc2ccccc2Cl)cnn1-c1ccc(-c2cn[nH]c2)cc1` [Example 29, 1-(4-(1H-pyrazol-4-yl)phenyl)-4-(2-chlorobenzyl)-1H-1,2,4-triazol-5(4H)-one]: 0.005 to 0.05 µM; for `COc1cc(-n2c(C)nn(Cc3ccccc3)c2=O)ccc1-c1cn[nH]c1` [Example 60, 1-benzyl-4-(3-methoxy-4-(1H-pyrazol-4-yl)phenyl)-3-methyl-1H-1,2,4-triazol-5(4H)-one]: 0.25 to 2 µM; for `COc1cc(-n2nc(C)n(Cc3cccc(C#N)c3)c2=O)ccc1-c1cn[nH]c1` [Example 97, 3-((1-(3-methoxy-4-(1H-pyrazol-4-yl)phenyl)-3-methyl-5-oxo-1H-1,2,4-triazol-4(5H)-yl)methyl)benzonitrile]: 0.05 to 0.25 µM.

`COc1cccc(Cn2c(C)nn(-c3ccc(-c4ccnc(N)n4)cc3)c2=O)c1` [Example 166, 1-(4-(2-aminopyrimidin-4-yl)phenyl)-4-(3-methoxybenzyl)-3-methyl-1H-1,2,4-triazol-5(4H)-one] came in with an IC50 of 0.005 to 0.05 µM.
